Like-named read-outs stand apart in the source and are kept apart here. Marks after values point to notes of the source that are not given here.
How the values were obtained:
R. solanacearum [1] = type: in vivo, Ralstonia solanacearum; settings: beef tomato, soil drench at 3 and 10 dpi, 5 mg/L IBA and/or 15 mg/L Kinetin; for Severity score at days post infection (dpi): 9 / Severity score at days post infection (dpi): 11 / Severity score at days post infection (dpi): 13: 0-5 disease scale, mean n=12; for Severity score at days post infection (dpi): 9: 9 dpi; for Severity score at days post infection (dpi): 11: 11 dpi; for Severity score at days post infection (dpi): 13 / Survival Rate (13 dpi): 13 dpi; for Survival Rate (13 dpi): n=12
Ralstonia solanacearum = type: in vivo; settings: beef tomato, foliar spray at 3 and 10 dpi, 5 mg/L IBA and/or 15 mg/L Kinetin in 0.1% (v/v) Tween 80; for Severity score at days post infection (dpi): 9 / Severity score at days post infection (dpi): 11 / Severity score at days post infection (dpi): 13: 0-5 disease scale, mean n=12; for Severity score at days post infection (dpi): 9: 9 dpi; for Severity score at days post infection (dpi): 11: 11 dpi; for Severity score at days post infection (dpi): 13 / Survival Rate (13 dpi): 13 dpi; for Survival Rate (13 dpi): n=12
R. solanacearum [2] = type: in vivo, Ralstonia solanacearum; settings: beef tomato, soil drench before inoculation and at 3 and 10 dpi, 5 mg/L IBA and/or 20 mg/L Kinetin; for Severity score at days post infection (dpi): 9 / Severity score at days post infection (dpi): 11 / Severity score at days post infection (dpi): 13: 0-5 disease scale, mean n=12; for Severity score at days post infection (dpi): 9: 9 dpi; for Severity score at days post infection (dpi): 11: 11 dpi; for Severity score at days post infection (dpi): 13 / Survival Rate (13 dpi): 13 dpi; for Survival Rate (13 dpi): n=12

SMILES | Severity score at days post infection (dpi): 9 (R. solanacearum [1]) | Severity score at days post infection (dpi): 11 (R. solanacearum [1]) | Severity score at days post infection (dpi): 13 (R. solanacearum [1]) | Survival Rate (13 dpi) (R. solanacearum [1]) [%] | Severity score at days post infection (dpi): 9 (Ralstonia solanacearum) | Severity score at days post infection (dpi): 11 (Ralstonia solanacearum) | Severity score at days post infection (dpi): 13 (Ralstonia solanacearum) | Survival Rate (13 dpi) (Ralstonia solanacearum) [%] | Severity score at days post infection (dpi): 9 (R. solanacearum [2]) | Severity score at days post infection (dpi): 11 (R. solanacearum [2]) | Severity score at days post infection (dpi): 13 (R. solanacearum [2]) | Survival Rate (13 dpi) (R. solanacearum [2]) [%]
c1coc(CNc2ncnc3nc[nH]c23)c1 [Kinetin, N6-furfuryladenine] | 0.25* | 1.08* | 2.58 | 75 | 0.42 | 2.08 | 3.17 | 58 | 0.83 | 1.42 | 2.08* | 75
O=C(O)CCCc1c[nH]c2ccccc12 [IBA, indole-3-butyric acid] | 0.25* | 1.00* | 2.50 | 67 | 0.25* | 2.50 | 3.25 | 58 | 0.92 | 1.58 | 2.17* | 75
